Data reported in PubChem BioAssay (NCI).
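Step 1: Grow cells in 96-well plates. Step 2: Expose to compound for 48 hours at 5 concentrations. Step 3: Interpolate endpoints linearly; if unreached, use highest concentration. TGI: concentration producing complete growth inhibition.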

How the values were obtained:
Test in all cases: NCI tumour cell line growth inhibition, 48 h
786-0 renal = test system: 786-0 renal
A498 renal = test system: A498 renal
A549 NSCLC = test system: A549 NSCLC
ACHN renal = test system: ACHN renal
BT-549 breast = test system: BT-549 breast
CAKI-1 renal = test system: CAKI-1 renal
CCRF-CEM leukemia = test system: CCRF-CEM leukemia
COLO 205 colon = test system: COLO 205 colon
DU-145 prostate = test system: DU-145 prostate
HCC-2998 colon = test system: HCC-2998 colon
HCT-116 colon = test system: HCT-116 colon
HCT-15 colon = test system: HCT-15 colon
HL-60(TB) leukemia = test system: HL-60(TB) leukemia
HOP-62 NSCLC = test system: HOP-62 NSCLC
HOP-92 NSCLC = test system: HOP-92 NSCLC
HT29 colon = test system: HT29 colon
K-562 leukemia = test system: K-562 leukemia
KM12 colon = test system: KM12 colon
LOX IMVI melanoma = test system: LOX IMVI melanoma
M14 melanoma = test system: M14 melanoma
MCF7 breast = test system: MCF7 breast
MDA-MB-231 breast = test system: MDA-MB-231 breast
MDA-MB-435 = test system: MDA-MB-435
MDA-N = test system: MDA-N
NCI-H226 lung = test system: NCI-H226 lung
NCI-H23 lung = test system: NCI-H23 lung
NCI/ADR-RES ovarian = test system: NCI/ADR-RES ovarian
OVCAR-3 ovarian = test system: OVCAR-3 ovarian
OVCAR-5 ovarian = test system: OVCAR-5 ovarian
OVCAR-8 ovarian = test system: OVCAR-8 ovarian
PC-3 prostate = test system: PC-3 prostate
RPMI-8226 leukemia = test system: RPMI-8226 leukemia
RXF 393 renal = test system: RXF 393 renal
SF-268 CNS = test system: SF-268 CNS
SF-295 CNS = test system: SF-295 CNS
SF-539 CNS = test system: SF-539 CNS
SK-MEL-2 melanoma = test system: SK-MEL-2 melanoma
SK-MEL-28 melanoma = test system: SK-MEL-28 melanoma
SK-MEL-5 melanoma = test system: SK-MEL-5 melanoma
SK-OV-3 ovarian = test system: SK-OV-3 ovarian
SN12C renal = test system: SN12C renal
SNB-19 CNS = test system: SNB-19 CNS
SNB-75 CNS = test system: SNB-75 CNS
SW-620 colon = test system: SW-620 colon
T-47D breast = test system: T-47D breast
TK-10 renal = test system: TK-10 renal
U251 CNS = test system: U251 CNS
UACC-257 melanoma = test system: UACC-257 melanoma
UACC-62 melanoma = test system: UACC-62 melanoma
EKVX NSCLC = test system: EKVX NSCLC
IGROV1 ovarian = test system: IGROV1 ovarian
MOLT-4 leukemia = test system: MOLT-4 leukemia
NCI-H460 lung = test system: NCI-H460 lung
OVCAR-4 ovarian = test system: OVCAR-4 ovarian
SR leukemia = test system: SR leukemia
UO-31 renal = test system: UO-31 renal

**Q.** What does the source list for COc1ccc(C)cc1NC(=S)C#N?
**A.** TGI (786-0 renal): > 100 µM; TGI (A498 renal): > 100 µM; TGI (A549 NSCLC): > 100 µM; TGI (ACHN renal): > 100 µM; TGI (BT-549 breast): > 100 µM; TGI (CAKI-1 renal): > 100 µM; TGI (CCRF-CEM leukemia): > 100 µM; TGI (COLO 205 colon): > 100 µM; TGI (DU-145 prostate): > 100 µM; TGI (HCC-2998 colon): > 100 µM; TGI (HCT-116 colon): > 100 µM; TGI (HCT-15 colon): > 100 µM; TGI (HL-60(TB) leukemia): > 100 µM; TGI (HOP-62 NSCLC): > 100 µM; TGI (HOP-92 NSCLC): > 100 µM; TGI (HT29 colon): > 100 µM; TGI (K-562 leukemia): > 100 µM; TGI (KM12 colon): > 100 µM; TGI (LOX IMVI melanoma): > 100 µM; TGI (M14 melanoma): > 100 µM; TGI (MCF7 breast): > 100 µM; TGI (MDA-MB-231 breast): > 100 µM; TGI (MDA-MB-435): > 100 µM; TGI (MDA-N): > 100 µM; TGI (NCI-H226 lung): > 100 µM; TGI (NCI-H23 lung): > 100 µM; TGI (NCI/ADR-RES ovarian): > 100 µM; TGI (OVCAR-3 ovarian): > 100 µM; TGI (OVCAR-5 ovarian): > 100 µM; TGI (OVCAR-8 ovarian): > 100 µM; TGI (PC-3 prostate): > 100 µM; TGI (RPMI-8226 leukemia): > 100 µM; TGI (RXF 393 renal): > 100 µM; TGI (SF-268 CNS): > 100 µM; TGI (SF-295 CNS): > 100 µM; TGI (SF-539 CNS): > 100 µM; TGI (SK-MEL-2 melanoma): > 100 µM; TGI (SK-MEL-28 melanoma): > 100 µM; TGI (SK-MEL-5 melanoma): > 100 µM; TGI (SK-OV-3 ovarian): > 100 µM; TGI (SN12C renal): > 100 µM; TGI (SNB-19 CNS): > 100 µM; TGI (SNB-75 CNS): > 100 µM; TGI (SW-620 colon): > 100 µM; TGI (T-47D breast): > 100 µM; TGI (TK-10 renal): > 100 µM; TGI (U251 CNS): > 100 µM; TGI (UACC-257 melanoma): > 100 µM; TGI (UACC-62 melanoma): > 100 µM

**Q.** For COc1cc(C2c3cc4c(cc3C(=O)C3CCC(=O)N32)OCO4)cc(OC)c1O (stereo not drawn), which TGI (786-0 renal) is on record?
**A.** Its TGI is > 50 µM.

**Q.** What about the TGI (A498 renal) of the same compound?
**A.** Its TGI is > 50 µM.

**Q.** And the TGI (A549 NSCLC)?
**A.** The TGI was > 50 µM.

**Q.** And the TGI (ACHN renal)?
**A.** The TGI was > 50 µM.

**Q.** And the TGI (BT-549 breast)?
**A.** The TGI was > 50 µM.

**Q.** What about the TGI (CCRF-CEM leukemia) of the same compound?
**A.** Its TGI is > 50 µM.

**Q.** And the TGI (COLO 205 colon)?
**A.** The TGI was > 50 µM.

**Q.** And the TGI (DU-145 prostate)?
**A.** The TGI was > 50 µM.

**Q.** And the TGI (EKVX NSCLC)?
**A.** The TGI was > 50 µM.

**Q.** And the TGI (HCT-116 colon)?
**A.** The TGI was > 50 µM.

**Q.** And the TGI (HCT-15 colon)?
**A.** The TGI was > 50 µM.

**Q.** What about the TGI (HL-60(TB) leukemia) of the same compound?
**A.** The TGI was > 50 µM.

**Q.** What about the TGI (HOP-62 NSCLC) of the same compound?
**A.** The TGI was > 50 µM.

**Q.** What about the TGI (HOP-92 NSCLC) of the same compound?
**A.** The TGI was > 50 µM.

**Q.** What about the TGI (HT29 colon) of the same compound?
**A.** Its TGI is > 50 µM.

**Q.** What about the TGI (IGROV1 ovarian) of the same compound?
**A.** The TGI was > 50 µM.

**Q.** What about the TGI (K-562 leukemia) of the same compound?
**A.** The TGI was > 50 µM.

**Q.** And the TGI (KM12 colon)?
**A.** Its TGI is > 50 µM.

**Q.** What about the TGI (M14 melanoma) of the same compound?
**A.** Its TGI is > 50 µM.

**Q.** And the TGI (MCF7 breast)?
**A.** Its TGI is > 50 µM.

**Q.** What about the TGI (MDA-MB-435) of the same compound?
**A.** The TGI was > 50 µM.

**Q.** And the TGI (MDA-N)?
**A.** The TGI was > 50 µM.

**Q.** And the TGI (MOLT-4 leukemia)?
**A.** The TGI was > 50 µM.

**Q.** And the TGI (NCI-H226 lung)?
**A.** The TGI was > 50 µM.

**Q.** And the TGI (NCI-H23 lung)?
**A.** Its TGI is > 50 µM.

**Q.** What about the TGI (NCI-H460 lung) of the same compound?
**A.** Its TGI is > 50 µM.

**Q.** What about the TGI (NCI/ADR-RES ovarian) of the same compound?
**A.** The TGI was > 50 µM.

**Q.** And the TGI (OVCAR-3 ovarian)?
**A.** Its TGI is > 50 µM.

**Q.** What about the TGI (OVCAR-4 ovarian) of the same compound?
**A.** The TGI was > 50 µM.

**Q.** And the TGI (OVCAR-5 ovarian)?
**A.** Its TGI is > 50 µM.

**Q.** And the TGI (OVCAR-8 ovarian)?
**A.** The TGI was > 50 µM.

**Q.** And the TGI (PC-3 prostate)?
**A.** The TGI was > 50 µM.

**Q.** What about the TGI (RPMI-8226 leukemia) of the same compound?
**A.** Its TGI is > 50 µM.

**Q.** What about the TGI (RXF 393 renal) of the same compound?
**A.** Its TGI is > 50 µM.

**Q.** What about the TGI (SF-295 CNS) of the same compound?
**A.** Its TGI is > 50 µM.

**Q.** And the TGI (SF-539 CNS)?
**A.** The TGI was > 50 µM.

**Q.** And the TGI (SK-MEL-2 melanoma)?
**A.** The TGI was > 50 µM.

**Q.** And the TGI (SK-MEL-28 melanoma)?
**A.** The TGI was > 50 µM.

**Q.** What about the TGI (SK-OV-3 ovarian) of the same compound?
**A.** Its TGI is > 50 µM.

**Q.** And the TGI (SN12C renal)?
**A.** Its TGI is > 50 µM.

**Q.** And the TGI (SNB-19 CNS)?
**A.** The TGI was > 50 µM.

**Q.** And the TGI (SNB-75 CNS)?
**A.** The TGI was > 50 µM.

**Q.** What about the TGI (SR leukemia) of the same compound?
**A.** The TGI was > 50 µM.

**Q.** And the TGI (SW-620 colon)?
**A.** The TGI was > 50 µM.

**Q.** And the TGI (T-47D breast)?
**A.** The TGI was > 50 µM.

**Q.** And the TGI (U251 CNS)?
**A.** Its TGI is > 50 µM.

**Q.** What about the TGI (UACC-257 melanoma) of the same compound?
**A.** Its TGI is > 50 µM.

**Q.** What about the TGI (UACC-62 melanoma) of the same compound?
**A.** Its TGI is > 50 µM.

**Q.** What about the TGI (UO-31 renal) of the same compound?
**A.** Its TGI is > 50 µM.
